Experimental findings from publication PMC8414367, “(E)-7-Ethylidene-lithocholic Acid (7-ELCA) Is a Potent Dual Farnesoid X Receptor (FXR) Antagonist and GPBAR1 Agonist Inhibiting FXR-Induced Gene Expression in Hepatocytes and Stimulating Glucagon-like Peptide-1 Secretion From Enteroendocrine Cells” (Frontiers in Pharmacology, 2021) are described below.

“And” between values parts separate entries of the source, which are not always exact repeats. Equal entries are not always repeated. Where two headings read alike, the source gives them in different places.

For data set [1], the system named is SHP protein, HepaRG cells. In words: Western blot of SHP protein in HepaRG cells. The data set is classed as cell-based, human. The settings on record: with OCA 1 µM, 48 h. The procedure: Protein determination was performed from whole-cell lysates of terminally differentiated HepaRG cells treated for 48 h. Protein levels were quantified using a PierceTM BCA Protein Assay Kit (ThermoFisher Scientific, Waltham, United States) according to the manufacturer's protocol. The western blotting analysis was performed as described in our previous paper ([Stefela et al., 2020]) with mouse monoclonal anti-SHP antibody (clone OTI5F10, Cat. No. TA806319, Origene, Rockville, MD, United States) and antibody against GAPDH (Cell Signaling Technology, Leiden, the Netherlands) as a loading control. Protein concentration was measured using the BCA protein assay (Sigma-Aldrich/Merck, Prague, Czech Republic). Protein expression quantification was done using densitometric software (LabImage, Kapelan Bio-Imaging, Germany).
FIGURE 6 Regulation of FXR downstream genes by 7-ELCA and 7β-propyl-CDCA in the presence or absence of 1 µM OCA as the potent FXR agonist. Real-time qPCR analysis of mRNA expression of (A,C) BSEP and (B,D) SHP genes was performed in terminally differentiated HepaRG hepatic cells (A,B), and in primary human hepatocytes (PHH) from one donor treated for 24 h (C,D). (E) SHP protein expression in HepaRG cells after 48 h treatment with OCA alone or in combination with 7-ELCA and 7β-propyl-CDCA. […]

A further data set deals with T1, human FXR (Homo sapiens, UniProt Q96RI1).
T1 sequence (Q96RI1 1-486): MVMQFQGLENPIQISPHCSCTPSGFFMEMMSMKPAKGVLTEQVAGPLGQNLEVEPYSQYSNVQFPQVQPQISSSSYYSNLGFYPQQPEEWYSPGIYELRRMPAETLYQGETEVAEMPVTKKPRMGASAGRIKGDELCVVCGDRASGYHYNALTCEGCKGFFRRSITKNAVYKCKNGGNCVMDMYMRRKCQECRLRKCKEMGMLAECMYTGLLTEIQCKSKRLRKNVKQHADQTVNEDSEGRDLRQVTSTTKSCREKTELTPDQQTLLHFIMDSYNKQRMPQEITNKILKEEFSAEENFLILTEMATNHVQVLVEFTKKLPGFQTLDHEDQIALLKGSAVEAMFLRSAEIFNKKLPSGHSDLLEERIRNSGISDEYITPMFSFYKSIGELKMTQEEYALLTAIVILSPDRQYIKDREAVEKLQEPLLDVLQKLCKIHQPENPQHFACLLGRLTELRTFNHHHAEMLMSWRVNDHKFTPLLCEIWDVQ
T1 sequence (P19793 1-462 partner): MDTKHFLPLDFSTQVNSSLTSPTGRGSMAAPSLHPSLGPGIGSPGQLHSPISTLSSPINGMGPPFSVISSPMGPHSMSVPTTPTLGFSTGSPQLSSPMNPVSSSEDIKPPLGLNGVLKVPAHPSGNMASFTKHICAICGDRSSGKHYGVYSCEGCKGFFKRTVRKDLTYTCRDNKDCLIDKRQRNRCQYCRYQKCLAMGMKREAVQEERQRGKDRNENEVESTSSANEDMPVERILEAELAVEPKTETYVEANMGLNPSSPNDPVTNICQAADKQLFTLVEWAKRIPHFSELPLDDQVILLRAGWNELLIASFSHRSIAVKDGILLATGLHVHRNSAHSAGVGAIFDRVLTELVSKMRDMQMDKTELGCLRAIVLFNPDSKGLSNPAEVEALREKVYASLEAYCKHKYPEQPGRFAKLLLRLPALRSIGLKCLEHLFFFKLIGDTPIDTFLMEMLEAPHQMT
In words: FXR luciferase reporter gene assay (FXRE-luc) in HepG2 cells, antagonistic mode. The data set is classed as cell-based. Particulars: for IC50: HepG2, co-treatment with 1 µM OCA, 24 h, read-out: IC50, inhibition of OCA-induced FXR activation.

The subject of a further data set is HepG2. In words: MTS viability assay. Particulars: Homo sapiens; HepG2, 24 h, MTS; read-out: IC50 (µM), cell viability. The data set is classed as cell-based, human.
The test system of data set [2] is BSEP and SHP mRNA (FXR target genes), primary human hepatocytes. In words: RT-qPCR of FXR target genes in primary human hepatocytes. The data set is classed as cell-based. Particulars: for BSEP mRNA level upregulated by OCA / SHP mRNA level upregulated by OCA: 40 µM with OCA 1 µM, 24 h; for BSEP and SHP mRNA expression, compound per se: without OCA. The source says:
Total RNA from HepaRG cells or primary human hepatocyte samples was isolated by the phenol/chloroform method with TRI-reagent (Merck) according to the manufacturer's protocol. The cDNA was synthesized using a Tetro cDNA Synthesis Kit (Bioline, now Meridian Bioscience, Memphis, United States), and RT-qPCR was run in the Quant Studio 6 instrument using the Fast Advanced Master Mix (ThermoFisher Scientific, Waltham, United States) according to the MIQE protocols. All the probes were obtained from ThermoFisher Scientific: ABCB11 (BSEP, Hs00184824_m1), NR0B2 (SHP, Hs00222677_m1).
FIGURE 6 Regulation of FXR downstream genes by 7-ELCA and 7β-propyl-CDCA in the presence or absence of 1 µM OCA as the potent FXR agonist. Real-time qPCR analysis of mRNA expression of (A,C) BSEP and (B,D) SHP genes was performed in terminally differentiated HepaRG hepatic cells (A,B), and in primary human hepatocytes (PHH) from one donor treated for 24 h (C,D). (E) SHP protein expression in HepaRG cells after 48 h treatment with OCA alone or in combination with 7-ELCA and 7β-propyl-CDCA. Data were normalized to B2M mRNA or GAPDH protein and are expressed relative to those of control (vehicle-treated) cells.

In a further data set the target is T2, FXR LBD (Homo sapiens, UniProt Q96RI1).
T2 construct: purchased ThermoFisher Scientific PV4833
T2 sequence (Q96RI1 262-486 limits assumed): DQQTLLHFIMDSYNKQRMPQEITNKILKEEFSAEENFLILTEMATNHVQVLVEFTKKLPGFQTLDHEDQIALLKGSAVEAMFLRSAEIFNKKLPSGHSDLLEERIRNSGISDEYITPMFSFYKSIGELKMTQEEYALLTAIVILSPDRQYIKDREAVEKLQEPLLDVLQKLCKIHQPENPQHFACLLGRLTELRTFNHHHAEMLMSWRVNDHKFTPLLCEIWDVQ
In words: LanthaScreen TR-FRET FXR Coactivator Assay, antagonistic mode (SRC-2 peptide recruitment). The data set is classed as biochemical. The procedure:
The LanthaScreen® TR-FRET FXR Coactivator Assay (goat, PV4833, ThermoFisher Scientific) was performed to assess the affinity of tested compounds to FXR ligand-binding domain (LBD) in agonistic and antagonistic models. In the antagonistic assays, the FXR LBD was co-incubated with OCA or GW4064, together with tested ligands in increasing concentrations. The assay was performed according to the manufacturer’s protocols. […] Data have been obtained from three independent experiments performed in 4 replicates.

[3] abbreviates: HepG2, read-out: relative response (%) to the model FXR ligand activation (set to be 100%), GW4064 1 µM.
[4] abbreviates: GW4064 1 µM, read-out: IC50, inhibition of GW4064-promoted interaction of SRC-2 and FXR.
[5] abbreviates: OCA 1 µM, read-out: IC50, inhibition of OCA-induced recruitment of SRC-2 to FXR LBD.

For the compound `C/C=C1\C[C@@H]2C[C@H](O)CC[C@]2(C)[C@H]2CC[C@]3(C)[C@@H]([C@H](C)CCC(=O)O)CC[C@H]3[C@H]12` [2a, (E)-3α-Hydroxy-7-ethylidene-5β-cholan-24-oic acid], the melting point fell in the range of 67 to 72 °C. Moreover, the “SHP protein expression in cells treated with OCA” value in data set [1] is reported as “FXR antagonistic effect”. In addition, the IC50 on human FXR is 15 µM and 15.1 µM. The inhibition at 100 µM on human FXR (HepG2, read-out: inhibition of FXR activation) is ~95%. The remaining activity at 40 µM on human FXR (HepG2, read-out: relative response (%) to the model FXR ligand activation (set to be 100%), CDCA 20 µM) came out at 67.3 ± 0.6%. At human FXR (setting [3]), the remaining activity at 10 µM was found to be 82.9 ± 2.3% and the remaining activity at 40 µM amounted to 51.1 ± 2.9%. Moreover, the “capacity to antagonize OCA-stimulated FXR activation (in words)” value at human FXR (with 1 µM OCA, Figure 3B) is “most potent FXR antagonist”. Also, the IC50 in the data set on HepG2 was > 200 µM. Also, in data set [2], the “BSEP mRNA level upregulated by OCA” value is recorded as “reduced”; the “SHP mRNA level upregulated by OCA” value is listed as “reduced”; the “BSEP and SHP mRNA expression, compound per se” value is on record as “did not have an impact”. On FXR LBD (setting [4]), the IC50 stood at 6.6 ± 2.9 µM. On FXR LBD (setting [5]), the IC50 worked out at 18 ± 2.7 µM.
`CCC[C@@]1(O)C[C@@H]2C[C@H](O)CC[C@]2(C)C2CC[C@@]3(C)C(CC[C@@H]3[C@H](C)CCC(=O)O)C21` (stereo partly drawn) [2f, 3α,7α-Dihydroxy-7β-propyl-5β-cholan-24-oic acid] had a melting point of 100 to 105 °C. The “SHP protein expression in cells treated with OCA” value in data set [1] is given as “FXR antagonistic effect”. Also, the IC50 at human FXR came out at 20.5 ± 1 µM. The inhibition at 100 µM on human FXR (HepG2, at 100 µM, with 1 µM OCA, read-out: inhibition of FXR activation) is ~85%. Further, the remaining activity at 10 µM at human FXR (HepG2, tested compound 10 µM, GW4064 1 µM, read-out: relative response (%) to the model FXR ligand activation (set to be 100%), GW4064 1 µM) came out at 85.7 ± 11.2%. Also, on human FXR (HepG2, tested compound 40 µM, CDCA 20 µM, * = significant effect on cellular viability, read-out: relative response (%) to the model FXR ligand activation (set to be 100%), CDCA 20 µM), the remaining activity at 40 µM turned out to be 96.4 ± 0.7%. Further, the remaining activity at 40 µM on human FXR (HepG2, tested compound 40 µM, GW4064 1 µM, * = significant effect on cellular viability, read-out: relative response (%) to the model FXR ligand activation (set to be 100%), GW4064 1 µM) came to 61.7 ± 10.8%. Besides, the 50% inhibitory concentration (IC50) with HepG2 is 107 ± 1.1 µM. Besides, in data set [2], the “BSEP mRNA level upregulated by OCA” value is given as “reduced”; the “SHP mRNA level upregulated by OCA” value is “reduced”; the “BSEP and SHP mRNA expression, compound per se” value is given as “did not have an impact”. In addition, at FXR LBD (setting [4]), the IC50 worked out at 13.8 ± 2.5 µM. Moreover, the IC50 at FXR LBD (setting [5]) amounted to 26.5 ± 2 µM.
